Results from patent publication US20230318003A1, “REDOX FLOW BATTERY AND AQUEOUS-BASED SOLUTION” (RIVUS AB, priority 2020, published 2023).

Legend:
[1] = Cyclic voltammetry of the compounds of Examples 3, 4a and 4b; type: physicochemical; conditions: for Redox potential E^0′ vs. Ag/AgCl: single redox process; for Decomposition during cyclic voltammetry: both acidic and neutral electrolytes; for Redox potential vs. Ag/AgCl, first redox process / Redox potential vs. Ag/AgCl, second redox process: neutral electrolyte
Protocol: All CV measurements were carried out in a custom built 10 ml three-electrode electrochemical cell. The lower part of the cell holds the electrolyte of interest. In the upper part are ports to hold the working electrode, reference electrode and auxiliary electrode as well as inlet and outlet for N2 gas. […] Cyclic voltammograms were recorded at scan rates of 10 mVs^−1, 20 mVs^−1, 50 mVs^−1, 100 mVs^−1 and 250 mVs^−1 at room temperature. Prior to measurements, the electrolyte was de-aerated by continuously purging with N2 gas for 10-15 minutes and maintaining a N2 flow-blanket throughout the experiment to minimize any environmental contamination. Also, 80% of the ohmic drop was compensated for during the experiment using a positive feedback-loop.

[2] = Solubility testing, saturated solutions in milli-Q water at ambient temperature; conditions: thermodynamic from solid
Protocol: The solutions were centrifuged at 12,500 rpm for 30 minutes. 100 μl of the supernatant were pipetted in triplicates from each of the solution into separate empty vials of known weights. The content of these vails were left to dry in a vacuum oven overnight. The final weights of the vials were determined and the amount of each of the compounds calculated from the weight difference. Solubility in mmol/L for each compound was finally determined.

Water solubility of NDI = type: physicochemical
[3] = Cyclic voltammetry of NDI at different pH values; type: physicochemical; conditions: pH below 3
Text: The electrochemistry of NDI was examined by CV at a range of different pH values, to gain understanding of the electron transfer reaction mechanism. FIG. 2a and FIG. 2b show cyclic voltammograms (CVs) for NDI at pH 7 and 0, respectively. […] The broadness of the first reduction at pH 7, is assumed to be due to the possibility for the first electron to add at different positions of NDI.
A plot of the reduction potentials for NDI at different pHs is seen in FIG. 3. […] The second reduction, the triangles in the figure, has a slope of 91 mV/pH at pH below 3, indicating a one electron-1.5 proton relationship, according to the Nernst equation.

Diffusion NMR of NDI = type: physicochemical
Text: Addition of three protons to each NDI molecule at pH values as high as 3 is unlikely, since the third proton would be at a weakly basic carbonyl. This is further supported by the lack of buffering at lower pHs in the titration curve in FIG. 1.

[4] = Titration of tertiary NDI in water with 1 M sodium hydroxide; type: physicochemical; conditions: 50 ml 15.6 mM tertiary NDI in water
Text: The quaternization is only necessary if the molecule is to be examined at higher pH values, since the tertiary amine sidechains are protonated for pH values less than about 8 (pKa≈8.1) as shown by the titration curve in FIG. 1. In FIG. 1 it can be seen that the molecule deprotonates above pH 8 and precipitates out of solution. For actual flow battery applications, i.e. redox flow battery according to the present invention, the last reaction step is thus possible to omit.

[5] = Bulk electrolysis cycling of NDI; type: physicochemical; conditions: 25 mM in pH 6.4 phosphate buffer, twelve cycles at 15 mA, roughly a week
Protocol: A solution of 25 mM NDI in pH 6.4 sodium phosphate buffer was cycled in a bulk electrolysis cell, where all of the material is reduced, as opposed to CV and RDE, where only a small fraction of the material is probed. A galvanostatic BE setting was used, where a constant current of 40 mA was applied. The electrolysis was intermittently paused, allowing for CVs to be collected to be able to quantify the amount of NDI that has been reduced. The peak heights from the CVs were correlated to the passed current, and it was seen that the complete capacity of NDI could be accessed using bulk electrolysis. […] For NDI, the reduction of the molecule lowers the monomer concentration in the solution, and the dimerization equilibrium is shifted in the direction of dimer separation.
After the initial sweep, continuous cycling at a current of 15 mA was performed for twelve cycles. A CV was collected after the cycling had finished, roughly a week after starting. […] Apart from that, the NDI molecule is synthesized via a one-step reaction, at room temperature in water with an almost 100% yield. It is water soluble up to 0.7 M, and has a lower reduction potential than any of the other examined molecules, resulting in a high battery voltage in the application.

[6] = 0.5M sodium phosphate buffer of pH 7, scan rate 10 mVs^−1
[7] = 0.5M sodium phosphate buffer of pH 7, scan rate 20 mVs^−1
[8] = 0.5M sodium phosphate buffer of pH 7, scan rate 50 mVs^−1
[9] = 0.5M sodium phosphate buffer of pH 7, scan rate 100 mVs^−1
[10] = 0.5M sodium phosphate buffer of pH 7, scan rate 250 mVs^−1
[11] = 1M sulfuric acid, scan rate 10 mVs^−1
[12] = 1M sulfuric acid, scan rate 20 mVs^−1
[13] = 1M sulfuric acid, scan rate 50 mVs^−1
[14] = 1M sulfuric acid, scan rate 100 mVs^−1
[15] = 1M sulfuric acid, scan rate 250 mVs^−1
[16] = acidic electrolyte (1 M sulfuric acid)

Molecule: 4,9-dibromo-2,7-bis(3-(dimethylamino)propyl)benzo[Imn][3,8]phenanthroline-1,3,6,8(2H,7H)-tetraone [Compound 1]
- E^0′ vs. Ag/AgCl [1, 6]: −0.43 V
- peak current ratio ipa/ipc [1, 6]: 0.82 ± 0.04
- ΔEp [1, 6]: 49.21 ± 8.49 mV
- E^0′ vs. Ag/AgCl [1, 7]: −0.43 V
- peak current ratio ipa/ipc [1, 7]: 0.80 ± 0.05
- ΔEp [1, 7]: 51.87 ± 9.16 mV
- E^0′ vs. Ag/AgCl [1, 8]: −0.43 V
- peak current ratio ipa/ipc [1, 8]: 0.74 ± 0.06
- ΔEp [1, 8]: 61.48 ±12.09 mV
- E^0′ vs. Ag/AgCl [1, 9]: −0.43 V
- peak current ratio ipa/ipc [1, 9]: 0.69 ± 0.07
- ΔEp [1, 9]: 68.59 ± 14.05 mV
- E^0′ vs. Ag/AgCl [1, 10]: −0.43 V
- peak current ratio ipa/ipc [1, 10]: 0.63 ± 0.07
- ΔEp [1, 10]: 86.49 ± 20.99 mV
- E^0′ vs. Ag/AgCl [1, 11]: −0.13 V
- peak current ratio ipa/ipc [1, 11]: 0.91 ± 0.05
- ΔEp [1, 11]: 63.67 ± 10.03 mV
- E^0′ vs. Ag/AgCl [1, 12]: −0.13 V
- peak current ratio ipa/ipc [1, 12]: 0.92 ± 0.01
- ΔEp [1, 12]: 63.31 ± 10.97 mV
- E^0′ vs. Ag/AgCl [1, 13]: −0.13 V
- peak current ratio ipa/ipc [1, 13]: 0.89 ± 0.02
- ΔEp [1, 13]: 64.97 ± 10.46 mV
- E^0′ vs. Ag/AgCl [1, 14]: −0.13 V
- peak current ratio ipa/ipc [1, 14]: 0.87 ± 0.00
- ΔEp [1, 14]: 66.31 ± 9.29 mV
- E^0′ vs. Ag/AgCl [1, 15]: −0.13 V
- peak current ratio ipa/ipc [1, 15]: 0.82 ± 0.01
- ΔEp [1, 15]: 71.25 ± 11.85 mV
- Redox potential E^0′ vs. Ag/AgCl [1, 16]: −0.13 V
- Redox potential E^0′ vs. Ag/AgCl ([1]; neutral electrolyte (0.5 M sodium phosphate buffer pH 7)): −0.43 V

Molecule: C[N+](C)(C)CCCN1C(=O)c2ccc3c4c(ccc(c24)C1=O)C(=O)N(CCC[N+](C)(C)C)C3=O [Compound 2, Benzo[Imn][3,8]phenanthroline-2,7-dipropanaminium, 1,3,6,8-tetrahydro-N,N,N,N′,N′,N′-hexamethyl-1,3,6,8-tetraoxo-, dichloride]
- Redox potential E^0′ vs. Ag/AgCl [1, 16]: ~−0.32 V
- Decomposition during cyclic voltammetry [1]: no evidence of decomposition
- Redox potential vs. Ag/AgCl, first redox process ([1]; first redox process): ~−0.30 V
- Redox potential vs. Ag/AgCl, second redox process ([1]; second redox process): ~−0.63 V
- solubility ([2]; Average, average of tests 1-3): 678 mM
- solubility ([2]; Test 1, milli-Q water): 653 mM
- solubility ([2]; Test 2, milli-Q water): 689 mM
- solubility ([2]; Test 3, milli-Q water): 691 mM

Molecule: C[N+](C)(C)CCCN1C(=O)c2cc(Br)c3c4c(cc(Br)c(c24)C1=O)C(=O)N(CCC[N+](C)(C)C)C3=O [Compound 3, 3,3′-(4,9-dibromo-1,3,6,8-tetraoxo-1,3,6,8-tetrahydrobenzo[Imn][3,8]phenanthroline-2,7-diyl)bis(N,N,N-trimethylpropan-1-aminium) chloride]
- Potential vs. Ag/AgCl, first pair of peaks ([1]; acidic electrolyte, first redox process): ~−0.13 V
- Potential vs. Ag/AgCl, second pair of peaks ([1]; acidic electrolyte, second redox process): ~−0.38 V
- Decomposition during cyclic voltammetry [1]: no evidence of decomposition
- Redox potential vs. Ag/AgCl, first redox process ([1]; first redox process): −0.05 V
- Redox potential vs. Ag/AgCl, second redox process ([1]; second redox process): −0.65 V
- solubility ([2]; Average, average of tests 1-3): 149 mM
- solubility ([2]; Test 1, milli-Q water): 142 mM
- solubility ([2]; Test 2, milli-Q water): 151 mM
- solubility ([2]; Test 3, milli-Q water): 154 mM

Molecule: CN(C)CCCN1C(=O)c2ccc3c4c(ccc(c24)C1=O)C(=O)N(CCCN(C)C)C3=O [NDI, 2,7-bis(3-(dimethylamino)propyl)benzo[Imn][3,8]phenanthroline-1,3,6,8(2H,7H)-tetraone]
- Water solubility (Water solubility of NDI): up to 0.7 M
- Slope of second reduction potential versus pH [3]: 91 mV/pH
- Diffusion coefficient (Diffusion NMR of NDI; acid solution): 2.57 ×10^−6 cm^2 s^−1
- Diffusion coefficient (Diffusion NMR of NDI; neutral solution): 2.34 ×10^−6 cm^2 s^−1
- pKa of tertiary amine sidechains [4]: ≈ 8.1
- Material degradation after cycling (CV before vs after) [5]: no or little material degradation
